According to US8778964B2, “Hydroxy-substituted imidazo[1,2-a]-pyridinecarboxamides and their use” (Bayer Pharma Aktiengesellschaft, priority 2012, dated 2014):

Tested on: recombinant guanylate cyclase reporter cell line
Test: Action on recombinant guanylate cyclase reporter cell line (MEC)
Type: cell-based
Details: in some cases mean values obtained from individual determinations
Method in brief: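 Cell-based reporter assay with recombinant guanylate cyclase expressed in a reporter cell line, per a published method. Activity reported as minimal effective concentration (MEC), in some cases as the mean of individual determinations.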

Structure (SMILES)	minimal effective concentration
Cc1cc(OCCC(C(F)(F)F)C(F)(F)F)c2nc(C)c(C(=O)NCC(O)c3ccc(Cl)cc3)n2c1 (racemic) [Example 175, rac-N-[2-(4-chlorophenyl)-2-hydroxyethyl]-2,6-dimethyl-8-[4,4,4-trifluoro-3-(trifluoromethyl)butoxy]imidazo[1,2-a]pyridine-3-carboxamide]	3 µM
CC[C@H](CO)NC(=O)c1c(C)nc2c(OCc3cccc(Cl)c3Cl)cccn12 [Example 45, 8-[(2,3-dichlorobenzyl)oxy]-N-[(2R)-1-hydroxybutan-2-yl]-2-methylimidazo[1,2-a]-pyridine-3-carboxamide]	0.65 µM
C[C@@H](CO)NC(=O)c1c(C(F)(F)F)nc2c(OCC3CCCCC3)cccn12 [Example 56, 8-(cyclohexylmethoxy)-N-[(2S)-1-hydroxypropan-2-yl]-2-(trifluoromethyl)imidazo[1,2-a]pyridine-3-carboxamide]	1 µM
Cc1nc2c(OCc3c(F)cccc3F)cccn2c1C(=O)NC[C@H](O)c1ccccc1 [Example 33, 8-[(2,6-difluorobenzyl)oxy]-N-[(2R)-2-hydroxy-2-phenylethyl]-2-methylimidazo[1,2-a]pyridine-3-carboxamide]	0.3 µM
Cc1nc2c(OCc3c(F)cccc3F)cccn2c1C(=O)N[C@H]1c2ccccc2C[C@H]1O [Example 40, 8-[(2,6-difluorobenzyl)oxy]-N-[(1S,2R)-2-hydroxy-2,3-dihydro-1H-inden-1-yl]-2-methylimidazo[1,2-a]pyridine-3-carboxamide]	0.1 µM
CCCC[C@@H](NC(=O)c1c(C)nc2c(OCc3c(F)cccc3F)cccn12)C(O)C(F)(F)F (stereo partly drawn) [Example 141, 8-[(2,6-Difluorobenzyl)oxy]-2-methyl-N-[(3R)-1,1,1-trifluoro-2-hydroxyheptan-3-yl]imidazo[1,2-a]pyridine-3-carboxamide]	0.1 µM
Cc1nc2c(OCc3ccccc3)cccn2c1C(=O)N[C@@H](C)CO [Example 46, 8-(Benzyloxy)-N-[(2S)-1-hydroxypropan-2-yl]-2-methylimidazo[1,2-a]pyridine-3-carboxamide]	3 µM
Cc1nc2c(OCc3c(F)cccc3F)cccn2c1C(=O)NC(CO)c1cccnc1 (racemic) [Example 124, rac-8-[(2,6-Difluorobenzyl)oxy]-N-[2-hydroxy-1-(pyridin-3-yl)ethyl]-2-methylimidazo[1,2-a]-pyridine-3-carboxamide]	0.3 µM
CCC[C@H](CO)NC(=O)c1c(C)nc2c(OCC3CCCCC3)cccn12 [Example 67, 8-(cyclohexylmethoxy)-N-[(2R)-1-hydroxypentan-2-yl]-2-methylimidazo[1,2-a]pyridine-3-carboxamide]	0.03 µM
Cc1nc2c(OCc3c(F)cccc3F)cccn2c1C(=O)NC(CO)c1ccccn1 (racemic) [Example 119, rac-8-[(2,6-difluorobenzyl)oxy]-N-[2-hydroxy-1-(pyridin-2-yl)ethyl]-2-methylimidazo[1,2-a]-pyridine-3-carboxamide]	0.3 µM
CCCC[C@H](CO)NC(=O)c1c(C)nc2c(OCCC(C)C)cccn12 [Example 159, N-[(2R)-1-Hydroxyhexan-2-yl]-2-methyl-8-(3-methylbutoxy)imidazo[1,2-a]pyridine-3-carboxamide]	1 µM
Cc1nc2c(OCc3c(F)cccc3F)cccn2c1C(=O)NC(CCCC(F)(F)F)C(C)(C)O (single isomer, unassigned; ent-8) [Example 156, ent-8-[(2,6-Difluorobenzyl)oxy]-2-methyl-N-(7,7,7-trifluoro-2-hydroxy-2-methylheptan-3-yl)-imidazo[1,2-a]pyridine-3-carboxamide (enantiomer B)]	0.03 µM
Cc1nc2c(OCC3CCCCC3)cccn2c1C(=O)NC(C)CO (centres unmarked) [Example 84, 8-(cyclohexylmethoxy)-N-(1-hydroxypropan-2-yl)-2-methylimidazo[1,2-a]pyridine-3-carboxamide]	0.3 µM
CCCC[C@H](CO)NC(=O)c1c(C)nc2c(OCCC(C)C)cc(C)cn12 [Example 166, N-[(2R)-1-Hydroxyhexan-2-yl]-2,6-dimethyl-8-(3-methylbutoxy)imidazo[1,2-a]pyridine-3-carboxamide]	1 µM
CCCC[C@@H](NC(=O)c1c(C)nc2c(OCc3c(F)cccc3F)cccn12)C(O)C(F)(F)F (stereo partly drawn) [Example 142, 8-[(2,6-Difluorobenzyl)oxy]-2-methyl-N-[(3R)-1,1,1-trifluoro-2-hydroxyheptan-3-yl]imidazo[1,2-a]pyridine-3-carboxamide]	0.1 µM
Cc1nc2c(OCC3CCCCC3)cccn2c1C(=O)NCCOCCO [Example 86, 8-(cyclohexylmethoxy)-N-[2-(2-hydroxyethoxy)ethyl]-2-methylimidazo[1,2-a]-pyridine-3-carboxamide]	0.65 µM
Cc1nc2c(OCc3c(F)cccc3F)cccn2c1C(=O)NCCC(C)(C)O [Example 153, 8-[(2,6-difluorobenzyl)oxy]-N-(3-hydroxy-3-methylbutyl)-2-methylimidazo[1,2-a]pyridine-3-carboxamide]	0.3 µM
